Values of other authors in patent US20120043242A1, “Medicinal cannabis fatty foodstuff” (priority 2010, published 2012).
Read-outs that look alike come from different tables or passages of the source.

What was measured:
healthy individuals = healthy individuals / humans
people who use cannabis = settings: compared with the no cannabinoid and the TCH+CBD groups

| Structure (SMILES) | decarboxylation of concentrated THCA-A in solution into Δ^9-THC (120 degrees C.) | decarboxylation of concentrated THCA-A in solution into Δ^9-THC (140 degrees C.) | decarboxylation of concentrated THCA-A in solution into Δ^9-THC (160 degrees C.) | anxiety and psychotic symptoms (healthy individuals) | degradation of Δ^9-THC into cannabinol and dihydrocannabinol (160 degrees C.) | degradation of Δ^9-THC into cannabinol and dihydrocannabinol (180 degrees C.) | positive schizophrenia-like symptoms (people who use cannabis) |
| --- | --- | --- | --- | --- | --- | --- | --- |
| CCCCCc1cc2c(c(O)c1C(=O)O)[C@@H]1C=C(C)CC[C@H]1C(C)(C)O2 [THCA-A, tetrahydrocannabinol carboxylic acid] | Partial decarboxylation | Significant decarboxylation | Nearly complete decarboxylation |  |  |  |  |
| C=C(C)[C@@H]1CCC(C)=C[C@H]1c1c(O)cc(CCCCC)cc1O [CBD, cannabidiol] |  |  |  | anxiolytic and to have antipsychotic properties |  |  |  |
| CCCCCc1cc(O)c2c(c1)OC(C)(C)[C@@H]1CCC(C)=C[C@@H]21 [Δ^9-THC, Tetrahydrocannabinol] |  |  |  | elevate levels of anxiety and psychotic symptoms | some degradation | A significant percentage | higher levels |
